Marks after values point to notes of the source that are not given here.
Columns and labels:
nervous dogs = assay: Example 11 Study 2: behavior and heart rate after collar or spray with startle; format: in vivo, dog
Description: Eight dogs were obtained from a local contract research facility and assessment was made as to general dog health, behavior and heart rate. The dogs were estimated to be 2 to 7 years of age, mixed breed, and weighed averagely 8.1±0.18 kg at the start of the studies. […] Upon arrival each dog was bathed using shampoo containing flea and tick medicine (Hartz Mountain Corp. Secaucus, N.J. USA), and their body hair was shaved. Each dog was kept in a single room, which had 100% fresh air intake and exhaust. The dogs were fed twice (am and pm) per day ad libitum. At that time, the room was cleaned and the dogs obtained extra exercise. Water was available ad libitum.
Dog behavior was captured on video media at a sampling rate of 30 frames per second. Video records were reviewed in real time (with tape playing 30 frames per second). A scan sampling method was used to record dog behaviors each minute or each 5 minutes depending on the particular study. If the sample period was 120 minutes with four periods (0-30=0, 30-60=30, 60-90=60, and 90-120-90 min), then a scan sample was recorded each 1 minute. If the sample period was 24 hours, then the scan sample was collected each 5 minutes and summarized each hour. For example, pacing is when a dog walks in a stereotyped manner for minutes to hours. Because it was not easy to distinguish walking from pacing, the behaviors were merged. In addition, the video records could not clearly distinguish lying down and awake versus lying down and sleeping, therefore there was no separate description for these two behaviors.
Heart rate during the studies was measured by the use of a non-invasive telemetry system (Data Science International, St. Paul, Minn., USA). Leads were placed in contact with the dogs' shaved skin. Sensors measured heart rate, surface temperature and general activity. Data were transmitted to a receiving computer in another room. The sampling rate varied with the study, but was 5 seconds for the first two hours after treatments and then each 1 minute for 24 hours (depending on the particular study). For surface temperature measurements of the dog subjects, a thermistor was located against the skin of each dog. It recorded the surface temperature to the neared 0.1° C. on the same interval as the heart rate data.
Behavior and physiological data (heart rate and surface temperature) were analyzed by least squares analysis of variance using SAS (2011) software and the general linear models procedures. The experimental design of each study was a specialized randomized complete block in a Latin square design with data collected as a split plot over time. Dogs represented the blocks. Each dog received each treatment randomly in successive days or weeks. The statistical model included effects of treatment (TRT), dog, dog by treatment (TRT*DOG; error term used to assess treatment and dog effects), time (HR), treatment by time (TRT*HR), and residual error (SE; used to test remaining effects). Behavior data were collected and analyzed as counts per time period, but for clarity of presentation, the data are reported as percentage of time dogs engaged in each behavior.
In Study 2, the dogs were exposed to the same treatments as in Study 1, except a startle was also applied. An aerosol can (Pet Corrector, The Company of Animals, Surrey, UK) was used to make a loud hissing noise and a spray of liquid as a startle. The protocol involved spraying the Rabbit Pheromone at 0, 30, 60, and 90 min (RP; 1 μg/mL) or collar application (PLACEBO, SERG, or DAPC) at time zero. Each dog was startled at 45 minutes. Data were recorded for 120 minutes. Data reporting periods were: 0 (0-30 min), 30 (30-60 min), and 90 (90-120 min).

dogs = assay: Overall conclusions and meta-analysis across Studies 1-4; format: in vivo, dog
Procedure: Three delivery methods were examined (collar, spray, and room diffuser) and conclusions may be drawn about their efficacy. First, the pheromones were similar in efficacy when applied as a collar or spray. When used as a room diffuser, the pheromones/INTEROMONE® compositions had fewer significant effects compared with when they were delivered in collar or spray form. […] Meta-analyses were performed across studies to identify potential over-arching effects (FIGS. 18A and B). […] The reaction of most dogs to handling or startle was to go lay down; but the dogs exposed to rabbit INTEROMONE®were more likely to sit. Other than this general effect, each other finding must be considered within the context of the form of delivery (spray, collar or room diffuser) and the response of individual dog.

dog = assay: Room diffuser containing rabbit pheromone, use on dogs (Example 8); format: in vivo; conditions: 0.02% 2-methylbut-2-enal
Description: A room diffuser formulation containing rabbit pheromone can be prepared according to typical industry techniques described above. Table 4 is the list of ingredients that can be used to prepare a diffuser formulation comprising a rabbit pheromone.

[1] = 120 minutes after startle, SERG, DAPC collars, RP spray 1 μg/mL

C/C=C(\C)C=O [RP, 2-methylbut-2-enal]
Defecate (nervous dogs; [1]): 0.0 % of time | Drink (nervous dogs; [1]): 3.7 % of time | Eat (nervous dogs; [1]): 1.2 % of time | Lick self (nervous dogs; [1]): 0.0^b % of time | Lying down (nervous dogs; [1]): 46.4 % of time | Pace-walk (nervous dogs; [1]): 19.4 % of time | Sitting (nervous dogs; [1]): 53.8 % of time | Standing (nervous dogs; [1]): 23.4^b % of time | Urinate (nervous dogs; [1]): 0.0 % of time | lying down and sitting behavior of individual dogs after startle (nervous dogs; FIGS. 8 and 9): dogs 2, 3, 6 and 8 spent less time lying down but more time sitting after startle | standing behavior after startle (nervous dogs; in comparison to Placebo or SERG collars): increased standing behavior among RP-sprayed dogs | behaviors in meta-analysis across studies (dogs; Studies 1, 2 and 4, FIG. 18): Only dog sitting behavior was increased | overall effect on dog behavior and physiology (dogs; collar, spray and room diffuser, all four studies): most consistent or largest effect on dog behavior and physiology | change in dog behavior (dog): significant change in behavior towards a calmer demeanor
